According to ChEMBL document CHEMBL3045943, “Novel N-aryl(alkaryl)-2-[(3-R-2-oxo-2H-[1,2,4]triazino[2,3-c]quinazoline-6-yl)thio]acetamides: synthesis, cytotoxicity, anticancer activity, COMPARE analysis and docking” (2013):

How the values were obtained:
Type in all cases: functional
[1] = tested on: Photobacterium leiognathi; experiment: Growth inhibition of Photobacterium leiognathi Sh1 assessed as bio-luminescence at 0.25 mg/ml after 16 to 18 hr by chronic action test relative to control; design: scale not given: the % may be the effect or the level left
[2] = tested on: BT-549; experiment: Cytotoxicity against Homo sapiens (human) BT549 cells assessed as cell growth at 10 uM after 48 hr by SRB assay relative to control; details: BT-549, 48 h, read-out: Activity
[3] = tested on: NCI-H460; experiment: Cytotoxicity against Homo sapiens (human) NCI-H460 cells assessed as cell growth at 10 uM after 48 hr by SRB assay relative to control; details: NCI-H460, 48 h, read-out: Activity
[4] = tested on: SK-MEL-5; experiment: Cytotoxicity against Homo sapiens (human) SK-MEL-5 cells assessed as cell growth at 10 uM after 48 hr by SRB assay relative to control; details: SK-MEL-5, 48 h, read-out: Activity
[5] = tested on: UO-31; experiment: Cytotoxicity against Homo sapiens (human) UO31 cells assessed as cell growth at 10 uM after 48 hr by SRB assay relative to control; details: UO-31, 48 h, read-out: Activity
[6] = tested on: CAKI-1; experiment: Cytotoxicity against Homo sapiens (human) Caki1 cells assessed as cell growth at 10 uM after 48 hr by SRB assay relative to control; details: CAKI-1, 48 h, read-out: Activity
[7] = tested on: SF-268; experiment: Cytotoxicity against Homo sapiens (human) SF268 cells assessed as cell growth at 10 uM after 48 hr by SRB assay relative to control; details: SF-268, 48 h, read-out: Activity
[8] = tested on: Photobacterium leiognathi; experiment: Growth inhibition of Photobacterium leiognathi Sh1 assessed as bio-luminescence at 0.1 mg/ml after 16 to 18 hr by chronic action test relative to control; design: scale not given: the % may be the effect or the level left
[9] = tested on: MDA-MB-231; experiment: Cytotoxicity against Homo sapiens (human) MDA-MB-231 cells assessed as cell growth at 10 uM after 48 hr by SRB assay relative to control; details: MDA-MB-231, 48 h, read-out: Activity
[10] = tested on: Photobacterium leiognathi; experiment: Growth inhibition of Photobacterium leiognathi Sh1 assessed as bio-luminescence at 0.025 mg/ml after 16 to 18 hr by chronic action test relative to control; design: scale not given: the % may be the effect or the level left
[11] = tested on: SF-539; experiment: Cytotoxicity against Homo sapiens (human) SF539 cells assessed as cell growth at 10 uM after 48 hr by SRB assay relative to control; details: SF-539, 48 h, read-out: Activity
[12] = tested on: KM12; experiment: Cytotoxicity against Homo sapiens (human) KM12 cells assessed as cell growth at 10 uM after 48 hr by SRB assay relative to control; details: KM12, 48 h, read-out: Activity
[13] = tested on: A498; experiment: Cytotoxicity against Homo sapiens (human) A498 cells assessed as cell growth at 10 uM after 48 hr by SRB assay relative to control; details: A498, 48 h, read-out: Activity
[14] = tested on: SK-MEL-5; experiment: Cytotoxicity against Homo sapiens (human) SK-MEL-5 cells after 48 hr by SRB assay; details: SK-MEL-5, 48 h
[15] = tested on: Photobacterium leiognathi; experiment: Growth inhibition of Photobacterium leiognathi Sh1 assessed as bio-luminescence at 0.1 mg/ml after 10 min by acute action test relative to control; design: scale not given: the % may be the effect or the level left
[16] = tested on: COLO 205; experiment: Cytotoxicity against Homo sapiens (human) COLO205 cells assessed as cell growth at 10 uM after 48 hr by SRB assay relative to control; details: COLO 205, 48 h, read-out: Activity
[17] = tested on: U-251; experiment: Cytotoxicity against Homo sapiens (human) U251 cells assessed as cell growth at 10 uM after 48 hr by SRB assay relative to control; details: U-251, 48 h, read-out: Activity
[18] = tested on: Photobacterium leiognathi; experiment: Growth inhibition of Photobacterium leiognathi Sh1 assessed as bio-luminescence at 0.025 mg/ml after 10 min by acute action test relative to control; design: scale not given: the % may be the effect or the level left
[19] = tested on: SNB-75; experiment: Cytotoxicity against Homo sapiens (human) SNB75 cells assessed as cell growth at 10 uM after 48 hr by SRB assay relative to control; details: SNB-75, 48 h, read-out: Activity
[20] = tested on: Photobacterium leiognathi; experiment: Growth inhibition of Photobacterium leiognathi Sh1 assessed as bio-luminescence at 0.25 mg/ml after 10 min by acute action test relative to control; design: scale not given: the % may be the effect or the level left
[21] = tested on: HT-29; experiment: Cytotoxicity against Homo sapiens (human) HT-29 cells assessed as cell growth at 10 uM after 48 hr by SRB assay relative to control; details: HT-29, 48 h, read-out: Activity
[22] = tested on: A498; experiment: Cytotoxicity against Homo sapiens (human) A498 cells after 48 hr by SRB assay; details: A498, 48 h
[23] = tested on: HOP-62; experiment: Cytotoxicity against Homo sapiens (human) HOP62 cells after 48 hr by SRB assay; details: HOP-62, 48 h
[24] = tested on: ACHN; experiment: Cytotoxicity against Homo sapiens (human) ACHN cells assessed as cell growth at 10 uM after 48 hr by SRB assay relative to control; details: read-out: Activity
[25] = tested on: NCI-H522; experiment: Cytotoxicity against Homo sapiens (human) NCI-H522 cells after 48 hr by SRB assay; details: NCI-H522, 48 h
[26] = tested on: HCT-116; experiment: Cytotoxicity against Homo sapiens (human) HCT116 cells assessed as cell growth at 10 uM after 48 hr by SRB assay relative to control; details: HCT-116, 48 h, read-out: Activity
[27] = tested on: SW-620; experiment: Cytotoxicity against Homo sapiens (human) SW620 cells assessed as cell growth at 10 uM after 48 hr by SRB assay relative to control; details: SW-620, 48 h, read-out: Activity
[28] = tested on: NCI-H460; experiment: Cytotoxicity against Homo sapiens (human) NCI-H460 cells after 48 hr by SRB assay; details: NCI-H460, 48 h
[29] = read-out: pLC50 (the source's name) (converted)

Q: With `O=C(CSc1nc2ccccc2c2nc(=O)c(-c3ccccc3)nn12)NCc1ccc(F)cc1` as the molecule, how does the Activity [1] read?
A: 166.7%

Q: What about the growth at 10 µM [2] of the same molecule?
A: 45.9%

Q: And the growth at 10 µM [3]?
A: -25.4%

Q: What about the growth at 10 µM [4] of the same molecule?
A: 17.9%

Q: And the growth at 10 µM [5]?
A: 12.7%

Q: What about the growth at 10 µM [6] of the same molecule?
A: -5.36%

Q: And the growth at 10 µM [7]?
A: 51.2%

Q: And the Activity [8]?
A: 76.9%

Q: What about the growth at 10 µM [9] of the same molecule?
A: 15.7%

Q: And the Activity [10]?
A: 90.9%

Q: What about the growth at 10 µM [11] of the same molecule?
A: 30.8%

Q: And the growth at 10 µM [12]?
A: 9.97%

Q: What about the growth at 10 µM [13] of the same molecule?
A: 24.8%

Q: And the GI50 [14]?
A: 3.02 µM

Q: And the LC50 [14]?
A: > 100 µM

Q: And the TGI ([14]; read-out: pTGI)?
A: > 100 µM

Q: And the Activity [15]?
A: 78.8%

Q: What about the growth at 10 µM [16] of the same molecule?
A: 30.8%

Q: And the growth at 10 µM [17]?
A: 19.9%

Q: And the Activity [18]?
A: 77.8%

Q: And the growth at 10 µM [19]?
A: 44.3%

Q: And the Activity [20]?
A: 91.7%

Q: And the growth at 10 µM [21]?
A: 30.9%

Q: And the GI50 [22]?
A: 1.12 µM

Q: What about the LC50 [22] of the same molecule?
A: > 100 µM

Q: And the TGI ([22]; read-out: pTGI (converted))?
A: 34.7 µM

Q: What about the GI50 [23] of the same molecule?
A: 1.74 µM

Q: And the LC50 [23]?
A: > 100 µM

Q: And the TGI ([23]; read-out: pTGI (converted))?
A: 6.92 µM

Q: What about the growth at 10 µM [24] of the same molecule?
A: 43.7%

Q: What about the GI50 [25] of the same molecule?
A: 2.51 µM

Q: And the CC50 [25, 29]?
A: > 100 µM

Q: What about the TGI ([25]; read-out: pTGI (converted)) of the same molecule?
A: 31.6 µM

Q: And the growth at 10 µM [26]?
A: 38.9%

Q: And the growth at 10 µM [27]?
A: 45.7%

Q: What about the GI50 [28] of the same molecule?
A: 2.57 µM

Q: What about the CC50 [28, 29] of the same molecule?
A: > 100 µM

Q: What about the TGI ([28]; read-out: pTGI) of the same molecule?
A: > 100 µM
